From publication PMC10748060, “In Silico and In Vitro Evaluation of the Mechanism of Action of Three VX809-Based Hybrid Derivatives as Correctors of the F508del CFTR Protein” (Pharmaceuticals, 2023)
Entries after “also recorded” stand apart in the source; their conditions may differ.

Assays:
[1] = target: T1, F508del CFTR (Homo sapiens, UniProt P13569, DEL508-508); design: Assessing the Impact of Corrector Combinations on Full-Length F508del CFTR Function; expressed in transfected cells; host or cells: Fisher rat thyroid (FRT) cells; human bronchial epithelial CFBE41o- cells; conditions: Figure 1B; read-out: corrector half-maximal effective concentration (EC50); cited from earlier work
T1 sequence (P13569 with tags, fused parts or gaps DEL508-508): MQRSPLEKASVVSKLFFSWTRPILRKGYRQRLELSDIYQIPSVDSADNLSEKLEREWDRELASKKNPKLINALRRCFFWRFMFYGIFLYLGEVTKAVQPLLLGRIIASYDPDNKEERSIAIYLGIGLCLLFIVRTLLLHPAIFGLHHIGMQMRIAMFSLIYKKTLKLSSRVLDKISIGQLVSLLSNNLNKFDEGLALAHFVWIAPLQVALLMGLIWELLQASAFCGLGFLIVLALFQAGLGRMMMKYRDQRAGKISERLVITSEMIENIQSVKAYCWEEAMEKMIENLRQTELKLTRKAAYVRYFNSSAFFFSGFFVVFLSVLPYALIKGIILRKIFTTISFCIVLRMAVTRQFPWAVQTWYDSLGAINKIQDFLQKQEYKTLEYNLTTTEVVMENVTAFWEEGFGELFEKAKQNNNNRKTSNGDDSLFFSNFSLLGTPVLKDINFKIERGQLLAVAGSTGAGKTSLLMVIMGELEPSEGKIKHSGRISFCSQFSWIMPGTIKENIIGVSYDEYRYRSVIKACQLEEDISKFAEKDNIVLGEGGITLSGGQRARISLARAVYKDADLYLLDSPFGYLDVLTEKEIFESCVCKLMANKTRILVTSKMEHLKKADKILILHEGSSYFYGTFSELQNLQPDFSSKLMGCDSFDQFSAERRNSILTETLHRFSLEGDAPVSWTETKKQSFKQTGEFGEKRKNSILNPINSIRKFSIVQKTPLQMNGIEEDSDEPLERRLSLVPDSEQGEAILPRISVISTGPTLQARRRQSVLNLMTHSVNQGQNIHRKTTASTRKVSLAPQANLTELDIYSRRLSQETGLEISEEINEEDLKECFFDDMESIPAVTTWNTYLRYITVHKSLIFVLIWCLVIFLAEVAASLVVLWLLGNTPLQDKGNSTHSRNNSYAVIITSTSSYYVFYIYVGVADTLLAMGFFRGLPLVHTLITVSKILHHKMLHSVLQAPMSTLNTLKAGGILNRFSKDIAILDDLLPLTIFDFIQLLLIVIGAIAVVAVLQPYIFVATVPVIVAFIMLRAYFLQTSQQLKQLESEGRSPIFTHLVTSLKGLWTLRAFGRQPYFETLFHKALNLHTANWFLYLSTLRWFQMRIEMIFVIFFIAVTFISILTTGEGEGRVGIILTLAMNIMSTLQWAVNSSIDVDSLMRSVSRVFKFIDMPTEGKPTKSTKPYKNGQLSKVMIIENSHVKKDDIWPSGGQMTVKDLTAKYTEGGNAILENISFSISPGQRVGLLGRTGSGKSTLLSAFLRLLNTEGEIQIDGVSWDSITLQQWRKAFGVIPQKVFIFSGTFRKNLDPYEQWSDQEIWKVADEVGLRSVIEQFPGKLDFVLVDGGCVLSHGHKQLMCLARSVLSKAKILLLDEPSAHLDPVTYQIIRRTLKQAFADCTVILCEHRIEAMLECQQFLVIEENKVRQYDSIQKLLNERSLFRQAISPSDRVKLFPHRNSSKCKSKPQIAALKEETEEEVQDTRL

[2] = system: FRT cells; assay type: cell-based; conditions: 24 h incubation, mean ± SEM
Protocol: (§1) In both cases, media were supplemented with 10% FBS, 2 mM L-Glutamine, 1% PenStrep (100 U/mL), 1 mg/mL geneticin (G418), and 0.6 mg/mL zeocin as selection agents. Cells were grown under standard CO2 and temperature conditions. Confluence of cell was avoided to prevent loss of differentiation.
(§2) Cells were seeded into 48-well plates at a concentration of 0.3 × 10^5 cells per well. […] After exposition, cells were trypsinised and harvested for toxicity evaluation. To avoid an underestimation of the number of dead cells, the cells that were detached from the plates during exposure to the compounds were collected and considered. For each condition tested, at least four technical replicates were evaluated. In each well, at least 100 cells were considered.

[3] = system: CFBE41O^− cells; assay type: cell-based; conditions: 24 h incubation, mean ± SEM
Protocol: as §1, §2

[4] = system: HEK-t cells; assay type: cell-based; design: TDMax (maximum toxicity): unit not given here; conditions: 24 h incubation, mean ± SEM
Protocol: as §1, §2

[5] = Trypan blue cell viability at the working concentrations, all three cell lines; assay type: cell-based; conditions: human (HEK-t, CFBE41O^−) and rat (FRT), in all three cell lines; for viability at 24 h, 3 µM: at 3 μM
Protocol: as §1, §2

[6] = target: F508del NBD1 (Homo sapiens, UniProt P13569, DEL508-508); assay: Cycloheximide chase assay of F508del NBD1 in HEK-t cells; conditions: for effect on stability / half-life of F508del NBD1 versus DMSO control: cycloheximide chase, result in words; for F508del NBD1 expression after cycloheximide, relative to time 0: 3 µM VX661/VX445, 2 µM 2a/7m/7a, mean ± sem
Sequence of F508del NBD1 (P13569 with tags, fused parts or gaps DEL508-508): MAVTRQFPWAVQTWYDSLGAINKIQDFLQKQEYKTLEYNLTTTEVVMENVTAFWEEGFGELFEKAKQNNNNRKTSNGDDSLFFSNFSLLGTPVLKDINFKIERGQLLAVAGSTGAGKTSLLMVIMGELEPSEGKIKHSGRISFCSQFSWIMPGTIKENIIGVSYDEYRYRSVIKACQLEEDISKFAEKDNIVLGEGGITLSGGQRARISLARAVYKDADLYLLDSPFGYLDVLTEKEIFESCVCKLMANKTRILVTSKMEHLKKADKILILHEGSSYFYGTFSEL
Protocol: The stability of NBD1-F508del was evaluated according to a previously established procedure [38, 50, 51]. […] Cells were harvested at six different time points (after 0, 1, 2, 4, 6, and 8 h), and samples of whole-cell SDS extracts were subjected to immunoblot analysis.

[7] = target: WT NBD1 CFTR domain (Homo sapiens, UniProt P13569); assay: Western blot of CFTR single domain WT NBD1 in HEK-t cells; conditions: 3 µM VX661, 3 µM VX445, 2 µM 2a, 7m, 7a, normalised to actin and to untreated domain, mean ± sem
Sequence of WT NBD1 CFTR domain (P13569 348-633): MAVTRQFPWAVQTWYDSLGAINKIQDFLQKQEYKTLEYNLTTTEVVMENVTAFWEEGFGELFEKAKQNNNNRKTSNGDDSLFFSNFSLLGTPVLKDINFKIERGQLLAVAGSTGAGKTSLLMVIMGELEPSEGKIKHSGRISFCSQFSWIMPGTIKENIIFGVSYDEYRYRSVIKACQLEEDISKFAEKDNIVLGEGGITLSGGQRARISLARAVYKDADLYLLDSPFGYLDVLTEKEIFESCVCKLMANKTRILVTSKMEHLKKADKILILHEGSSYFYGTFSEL

[8] = target: R domain of CFTR (Homo sapiens, UniProt P13569); assay: Western blot of CFTR R domain in HEK-t cells; conditions: 3 µM VX661, 3 µM VX445, 2 µM 2a, 7m, 7a, normalised to actin and to untreated domain, mean ± sem
Sequence of R domain of CFTR (P13569 645-834): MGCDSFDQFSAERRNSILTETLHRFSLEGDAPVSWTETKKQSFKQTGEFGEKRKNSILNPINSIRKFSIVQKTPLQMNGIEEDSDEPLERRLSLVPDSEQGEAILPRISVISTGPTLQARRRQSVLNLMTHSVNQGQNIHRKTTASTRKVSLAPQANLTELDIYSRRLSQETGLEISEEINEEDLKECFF

[9] = target: MSD1 CFTR domain (Homo sapiens, UniProt P13569); assay: Western blot of CFTR single domain MSD1 in HEK-t cells; conditions: 3 µM VX661, 3 µM VX445, 2 µM 2a, 7m, 7a, normalised to actin and to untreated domain (times of DMSO control), mean ± sem
Sequence of MSD1 CFTR domain (P13569 1-388): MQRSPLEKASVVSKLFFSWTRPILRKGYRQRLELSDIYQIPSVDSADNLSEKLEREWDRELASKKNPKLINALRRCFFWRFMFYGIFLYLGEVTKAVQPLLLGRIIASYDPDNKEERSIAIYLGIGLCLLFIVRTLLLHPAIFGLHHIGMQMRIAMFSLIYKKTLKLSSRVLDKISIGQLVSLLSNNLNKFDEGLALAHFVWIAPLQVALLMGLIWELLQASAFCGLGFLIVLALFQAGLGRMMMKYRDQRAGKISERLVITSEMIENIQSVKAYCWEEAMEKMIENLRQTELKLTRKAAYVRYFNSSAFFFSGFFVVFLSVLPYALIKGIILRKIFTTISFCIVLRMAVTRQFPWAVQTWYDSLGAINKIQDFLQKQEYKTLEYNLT

[10] = target: T1, F508del CFTR; assay: YFP functional assay in CFBE41O^− cells
Protocol: (§3) The YFP functional assay was applied to assess whether the increase in protein expression induced by treatment with the compounds under investigation correlated with an increase in F508del CFTR channel activity.
(§4) Cells were then incubated with 60 µL PBS plus forskolin (20 µM) and VX-770 (1 µM) for 25 min to maximally stimulate F508del-CFTR. The cells were then transferred to a microplate reader (Tristar2 S, Berthold Technologies, Bad Wildbad, Germany) equipped with 485 nm excitation and 535 nm emission filters.
(§5) Iodide influx was detected as fluorescence quenching as the I^− anion bound to intracellular YFP. After background subtraction and normalisation to the average fluorescence before NaI addition, the initial fluorescence decay rate (QR) was derived by fitting the signal with an exponential function.

[11] = target: T1, F508del CFTR; assay: YFP functional assay in FRT cells
Protocol: as §3, §4, §5

[12] = 3 μM VX661, 3 μM VX445, 2 μM 2a, 7m, 7a, 18 h, forskolin + VX-770 stimulation

| Structure (SMILES) | TD50 (concentration required to achieve half maximum toxicity) [2] | TDMax (maximum toxicity) [2] | TD50 (concentration required to achieve half maximum toxicity) [3] | TDMax (maximum toxicity) [3] | TD50 (concentration required to achieve half maximum toxicity) [4] | viability at 24 h, 3 µM [5] | F508del NBD1 expression level, % of the initial level ([6]; 2 h after cycloheximide) | F508del NBD1 expression level, % of the initial level ([6]; 4 h after cycloheximide) | F508del NBD1 expression level, % of the initial level ([6]; 6 h after cycloheximide) | effect on stability / half-life of F508del NBD1 versus DMSO control [6] | F508del NBD1 expression after cycloheximide, relative to time 0 ([6]; time 0 h) | F508del NBD1 expression after cycloheximide, relative to time 0 ([6]; time 1 h) | F508del NBD1 expression after cycloheximide, relative to time 0 ([6]; time 2 h) | F508del NBD1 expression after cycloheximide, relative to time 0 ([6]; time 4 h) | F508del NBD1 expression after cycloheximide, relative to time 0 ([6]; time 6 h) | F508del NBD1 expression after cycloheximide, relative to time 0 ([6]; time 8 h) | WT NBD1 expression level [7] | R domain expression level [8] | also measured |
| --- | --- | --- | --- | --- | --- | --- | --- | --- | --- | --- | --- | --- | --- | --- | --- | --- | --- | --- | --- |
| CSc1cccc(Nc2nc(-c3cccc(Cl)c3)cs2)c1 [FCG] | – | – | – | – | – | – | – | – | – | – | – | – | – | – | – | – | – | – | EC50 [1]: 5.3 µM |
| CC(C)(CO)c1cc2cc(NC(=O)C3(c4ccc5c(c4)OC(F)(F)O5)CC3)c(F)cc2n1C[C@@H](O)CO [VX661, tezacaftor] | 11.09 ± 3.22 µM | 23.59 ± 0.08 µM | 7.51 ± 2.22 µM | 15.62 ± 0.06 µM | 27.15 ± 17.88 µM | ≥ 90% | 62% | 45% | 26% | did not prolong the half-life | 1.00 ± 0.02 | 0.73 ± 0.12 | 0.62 ± 0.13 | 0.45 ± 0.11 | 0.26 ± 0.08 | 0.09 ± 0.03 | 1.00± 0.15 | 1.06± 0.09 | – |
| O=C(c1ccccc1)c1sc(NC(=O)C2(c3ccc4c(c3)OCO4)CC2)nc1-c1ccccc1 [2a] | 9.24 ± 2.25 µM | 20.56 ± 0.06 µM | 10.11 ± 1.80 µM | 14.44 ± 0.06 µM | 2.44 ± 1.03 µM | – | 78% | 63% | 45% | significant increase; also recorded: significantly higher | 1.00 ± 0.08 | 0.87 ± 0.05 | 0.78 ± 0.08 | 0.63 ± 0.03 | 0.45± 0.06 | 0.34 ± 0.03 | – | – | MSD1 expression level [9]: 1.04 ± 0.05; increase of YFP initial quenching rate (QR, iodide influx) over the control condition [10, 12]: significantly increased; F508del CFTR channel activity (QR) of double combinations with VX445, compared with VX445 alone ([10]; result in words): none of the combinations with compound 2a produced an effect greater; F508del CFTR channel activity (QR) of double combinations with VX661, compared with VX661 alone ([10]; result in words): none of the combinations with compound 2a produced an effect greater; TDMax (maximum toxicity) [4]: 5.78 ± 0.04; viability at 24 h, 2 µM ([5]; at 2 μM): ≥ 90%; increase of YFP initial quenching rate (QR, iodide influx) over the control condition [11, 12]: significantly increased; F508del CFTR channel activity (QR) of double combinations with VX445, compared with VX445 alone ([11]; result in words): none of the combinations with compound 2a produced an effect greater; F508del CFTR channel activity (QR) of double combinations with VX661, compared with VX661 alone ([11]; result in words): none of the combinations with compound 2a produced an effect greater |
| Cc1nn(C)cc1S(=O)(=O)NC(=O)c1ccc(-n2ccc(OCC(C)(C)C(F)(F)F)n2)nc1N1C[C@@H](C)CC1(C)C [VX445, elexacaftor] | 4.29 ± 0.32 µM | 10.79 ± 0.01 µM | 11.75 ± 3.42 µM | 23.60 ± 0.07 µM | 9.60 ± 2.25 µM | ≥ 90% | 65% | 42% | 27% | did not prolong the half-life | 1.00 ± 0.04 | 0.75 ± 0.12 | 0.65 ± 0.07 | 0.42 ± 0.09 | 0.27 ± 0.05 | 0.14 ± 0.03 | 1.02 ± 0.18 | 1.01 ± 0.04 | – |
